19 compounds from patent publication US6949250B2, “Selective algaecides for control of cyanochloronta” (The United States of America as represented by the …, priority 2002, dated 2005) can be followed below.

Each structure is given as a SMILES string. Values after ≈ are worked out from the molar mass of the structure shown. Like-named read-outs stand apart in the source and are kept apart here. Some results are limits rather than exact numbers.

One experiment has as its system Oscillatoria perornata. Kind of experiment: Rapid bioassay screening for selective algicides (LOEC, LCIC). The class given is cell-based. The following applies: for MIC: read-out: LCIC (lowest-complete-inhibition concentration), Oscillatoria perornata; for minimal effective concentration: read-out: LOEC (lowest-observed-effect concentration), Oscillatoria perornata.
From the text: (§1) These were screened in the laboratory by the method of Schrader et al. (K. K. Schrader, M. Q. de Regt, C. S. Tucker and S. O. Duke, A rapid bioassay for selective algicides. Weed Technol. (1997), vol. 11, pp. 767-774) for algicidal activity.
(§2) The anthraquinone derivatives were screened for selective toxicity towards Oscillatoria perornata, previously isolated from a Mississippi catfish pond, using the method of Schrader et al. (1997). The green alga Selenastrum capricornutum (obtained from the United States Environmental Protection Agency, Corvallis, Oreg.) was used as the representative green algal species in the bioassay since it is a common species found in southeastern United States catfish ponds. Absorbance readings were graphed, and graphs were used to determine the LOEC (lowest-observed-effect concentration) and the LCIC (lowest-complete-inhibition concentration) for each anthraquinone analog. In addition, a 96-hour 50% inhibition concentration (IC50) was determined for DNA1-19-1 and DNA2-59-1 by using the method described by Schrader et al. (1998b). Stock solutions of DNA1-19-1 and DNA2-59-1 were prepared so that final concentrations screened for 96-hour IC50 determinations were as follows: 1) 0, 0.01, 0.033, 0.1, 0.333, 1.0, 3.3, and 10.0 μM DNA1-19-1 for both O. perornata and S. capricornutum; 2) 0, 0.003, 0.01, 0.033, 0.1, 0.333, 1.0, and 3.333 μM DNA2-59-1 for O. perornata; and 3) 0, 0.1, 0.333, 1.0, 3.333, 10.0, 33.333, and 100.0 μM DNA2-59-1 for S. capricornutum. Estimation of the IC50 was determined by plotting 96-hour absorbance readings against logarithmic dilution values of the anthraquinone analogs. The screening results of the anthraquinone derivatives and commercially available analogs of anthraquinone are presented in Tables 1 and 2, respectively. The results in Table 1 reveal that DNA1-19-1 and DNA2-59-1 are the most promising analogs since these two compounds had the lowest LOEC and LCIC values for O. perornata (10 nM and 100 nM, respectively). Based upon IC50 results in Table 3, DNA2-59-1 appears to be more toxic and selective towards O. perornata than DNA1-19-1.
as §2, with “(A rapid bioassay for selective algicides. Weed Technol. (1997), vol. 11, pp. 767-774).” for “(1997).”, “(K. K. Schradar, M. Q. de Regt, P. D. Tidwell, C. S. Tucker and S. O. Duke, Selective growth inhibition of the musty-odor producing cyanobacterium Oscillatoria cf. chalybea by natural compounds. Bull. Environ. Contam. Toxicol. (1998a), vol.60, pp. 651-658).” for “(1998b).”, “The screening results of the anthraquinone derivatives and commercially available analogs of anthraquinone are presented in Tables 1 and 2, respectively. The results in Table 1 reveal that DNA1-19-1 and DNA2-59-1 are the most promising analogs since these two compounds had the lowest LOEC and LCIC values for O. perornata (10 nM and 100 nM, respectively). Based upon IC50 results in Table 3, DNA2-59-1 appears to be more toxic and selective towards O. perornata than DNA1-19-1.” left out

Experiment [1] relates to Selenastrum capricornutum. Described as above. The class given is cell-based. The following applies: for MIC / minimal effective concentration: Selenastrum capricornutum; for MIC: read-out: LCIC (lowest-complete-inhibition concentration), Selenastrum capricornutum; for minimal effective concentration: read-out: LOEC (lowest-observed-effect concentration), Selenastrum capricornutum.
From the text: as §1, §2
as §2, with “(A rapid bioassay for selective algicides. Weed Technol. (1997), vol. 11, pp. 767-774).” for “(1997).”, “(K. K. Schradar, M. Q. de Regt, P. D. Tidwell, C. S. Tucker and S. O. Duke, Selective growth inhibition of the musty-odor producing cyanobacterium Oscillatoria cf. chalybea by natural compounds. Bull. Environ. Contam. Toxicol. (1998a), vol.60, pp. 651-658).” for “(1998b).”, “The screening results of the anthraquinone derivatives and commercially available analogs of anthraquinone are presented in Tables 1 and 2, respectively. The results in Table 1 reveal that DNA1-19-1 and DNA2-59-1 are the most promising analogs since these two compounds had the lowest LOEC and LCIC values for O. perornata (10 nM and 100 nM, respectively). Based upon IC50 results in Table 3, DNA2-59-1 appears to be more toxic and selective towards O. perornata than DNA1-19-1.” left out

[2] abbreviates: Planktothrix perornata, rapid screening.

For the compound `O=C1c2ccccc2C(=O)c2c(OCCOCCOCCOCCOCCO)cccc21` [DNA3-49-1, 1-[2-[2-[2-[2-(2-Hydroxyethoxy)ethoxy]ethoxy]ethoxy]ethoxy]-9,10-anthraquinone], the figures for the MIC (in the experiment on Oscillatoria perornata (setting [2]); in experiment [1] (rapid screening)) were 10 µM (≈ 4.44 µg/mL) and greater than 100 µM, respectively. Further, the minimal effective concentration with Oscillatoria perornata (setting [2]) was 1 µM; in experiment [1] (rapid screening) it was greater than 100 µM.
With `O=C1c2cccc(S(=O)(=O)O)c2C(=O)c2cccc(S(=O)(=O)O)c21` [anthraquinone-1,5-disulfonic acid, reference compound], the MIC (with Oscillatoria perornata (setting [2]); in experiment [1] (rapid screening)) was greater than 1000 µM throughout.
With `COCCOc1cccc2c1C(=O)c1ccccc1C2=O` [DNA3-13-1, 1-(2-Methoxyethoxy)-9,10-anthraquinone], the MIC is 10 µM (≈ 2.82 µg/mL) with Oscillatoria perornata (setting [2]) and greater than 100 µM in experiment [1] (rapid screening). The minimal effective concentration with Oscillatoria perornata (setting [2]) was 10 µM; in experiment [1] (rapid screening), 0.01 µM.
Turning to `Nc1cccc2c1C(=O)c1ccccc1C2=O` [1-aminoanthraquinone, reference compound], the figures for the MIC (in the experiment on Oscillatoria perornata (setting [2]); in experiment [1] (rapid screening)) were 100 µM (≈ 22.3 µg/mL) and greater than 100 µM, respectively.
Consider `COCCOCCOCCOCc1ccc2c(c1)C(=O)c1ccccc1C2=O` [DNA3-61-1, 2-methylene-[2-[2-(2-methoxyethoxy)ethoxy]ethoxy]-9,10-anthraquinone], for which, in the experiment with Oscillatoria perornata (rapid screening), the “LCIC (lowest-complete-inhibition concentration), Oscillatoria perornata” value is listed as 10,000 nM and the minimal effective concentration came to 0.1 µM. Moreover, in experiment [1] (rapid screening), the “LCIC (lowest-complete-inhibition concentration), Selenastrum capricornutum” value was >100,000 nM and the “LOEC (lowest-observed-effect concentration), Selenastrum capricornutum” value (“LOEC … Selenastrum capricornutum” for short) is recorded as >100,000 nM.
For the compound `O=C1c2cccc(O)c2C(=O)c2c(O)cccc21` [1,8-dihydroxyanthraquinone, reference compound], the MIC is 100 µM (≈ 24 µg/mL) with Oscillatoria perornata (setting [2]) and greater than 100 µM in experiment [1] (rapid screening).
As for `O=C(O)c1ccc2c(c1)C(=O)c1ccccc1C2=O` [anthraquinone-2-carboxylic acid, reference compound], the MIC (in the experiment with Oscillatoria perornata (Planktothrix perornata); in experiment [1]) was greater than 1000 µM in each case.
With `O=C1c2ccccc2C(=O)c2cc(OCCOCCOCCO)ccc21` [DNA2-99-2, 2-[2-[2-(2-Hydroxyethoxy)ethoxy]ethoxy]-9,10-anthraquinone], the MIC with Oscillatoria perornata (setting [2]) was 10 µM (≈ 3.56 µg/mL); in experiment [1] (rapid screening), greater than 100 µM. Moreover, the figures for the minimal effective concentration (in the experiment with Oscillatoria perornata (setting [2]); in experiment [1] (rapid screening)) were 10 µM and greater than 100 µM, respectively.
With `COCCOCCOCCOCCOc1cccc2c1C(=O)c1ccccc1C2=O` [DNA3-53-1, 1-[2-[2-[2-(2-Methoxyethoxy)ethoxy]ethoxy]ethoxy]-9,10-anthraquinone], in the experiment with Oscillatoria perornata (setting [2]), the MIC is 100 µM (≈ 41.4 µg/mL) and the minimal effective concentration stood at 10 µM. For the same compound, in experiment [1] (rapid screening), the MIC is greater than 100 µM and the minimal effective concentration worked out at 100 µM.
With `O=C1c2ccccc2C(=O)c2cc(OCCOCCOCCOCCOCCO)ccc21` [DNA3-51-1, 2-[2-[2-[2-[2-(2-Hydroxyethoxy)ethoxy]ethoxy]ethoxy]ethoxy]-9,10-anthraquinone], in the experiment with Oscillatoria perornata (setting [2]), the MIC was found to be 100 µM (≈ 44.4 µg/mL) and the minimal effective concentration was found to be 0.1 µM. In addition, in experiment [1] (rapid screening), the MIC was greater than 100 µM and the minimal effective concentration was greater than 100 µM.
On to `CCCNCc1ccc2c(c1)C(=O)c1ccccc1C2=O.O=P(O)(O)O` [DNA3-31-1, 2-[Methylamino-N-(propyl)]-9,10-anthraquinone monophosphate], for which, in the experiment on Oscillatoria perornata (rapid screening), the “LCIC (lowest-complete-inhibition concentration), Oscillatoria perornata” value is listed as 1,000 nM and the “LOEC (lowest-observed-effect concentration), Oscillatoria perornata” value (shortened to “LOEC … Oscillatoria perornata”) was 1,000 nM. Besides, in experiment [1] (rapid screening), the “LCIC (lowest-complete-inhibition concentration), Selenastrum capricornutum” value is recorded as 10,000 nM and the “LOEC … Selenastrum capricornutum” value is 10,000 nM.
With `O=C1c2ccccc2C(=O)c2cc(COCCOCCOCCO)ccc21` [DNA3-57-1, 2-Methylene-[2-[2-(2-hydroxyethoxy)ethoxy]ethoxy]-9,10-anthraquinone], in the experiment on Oscillatoria perornata (rapid screening), the “LCIC (lowest-complete-inhibition concentration), Oscillatoria perornata” value is listed as 10,000 nM and the minimal effective concentration came to 0.1 µM. Moreover, in experiment [1] (rapid screening), the “LCIC (lowest-complete-inhibition concentration), Selenastrum capricornutum” value is recorded as >100,000 nM and the “LOEC … Selenastrum capricornutum” value was >100,000 nM.
On to `CN(C)CCCNCc1ccc2c(c1)C(=O)c1ccccc1C2=O.O=P(O)(O)O.O=P(O)(O)O` [DNA2-23-1, 2-[Methylamino-N-(propyl-3′-N,N-dimethylamino)]-9,10-anthraquinone diphosphate], for which, in the experiment with Oscillatoria perornata (rapid screening), the “LCIC (lowest-complete-inhibition concentration), Oscillatoria perornata” value is on record as 1,000 nM and the minimal effective concentration is 0.1 µM. For the same compound, in experiment [1] (rapid screening), the “LCIC (lowest-complete-inhibition concentration), Selenastrum capricornutum” value is listed as 10,000 nM and the “LOEC … Selenastrum capricornutum” value is 10,000 nM.
Consider `CNCc1ccc2c(c1)C(=O)c1ccccc1C2=O.O=P(O)(O)O` [DNA3-19-1, 2-[Methylamino-N-(methyl)]-9,10-anthraquinone monophosphate], for which, in the experiment on Oscillatoria perornata (rapid screening), the “LCIC (lowest-complete-inhibition concentration), Oscillatoria perornata” value is 1,000 nM and the “LOEC … Oscillatoria perornata” value is on record as 1,000 nM. In experiment [1] (rapid screening), the “LCIC (lowest-complete-inhibition concentration), Selenastrum capricornutum” value was 10,000 nM and the “LOEC … Selenastrum capricornutum” value is given as 10,000 nM.
Take `CN(C)CCCNc1cccc2c1C(=O)c1ccccc1C2=O.O=P(O)(O)O` [DNA2-93-1, 1-amino-N-(propyl-3′-N,N-dimethylamino)-9,10-anthraquinone phosphate]: in the experiment with Oscillatoria perornata (rapid screening), the “LCIC (lowest-complete-inhibition concentration), Oscillatoria perornata” value is reported as 1,000 nM and the “LOEC … Oscillatoria perornata” value is given as 1,000 nM. Besides, in experiment [1] (rapid screening), the “LCIC (lowest-complete-inhibition concentration), Selenastrum capricornutum” value is 100,000 nM and the “LOEC … Selenastrum capricornutum” value is 100,000 nM.
With `CNc1cccc2c1C(=O)c1ccccc1C2=O` [1-(methylamino) anthraquinone, reference compound], the MIC with Oscillatoria perornata (Planktothrix perornata) was 100 µM (≈ 23.7 µg/mL); in experiment [1] it was greater than 100 µM.
As to `CC(C)(C)NCc1ccc2c(c1)C(=O)c1ccccc1C2=O.O=P(O)(O)O` [DNA3-33-1, 2-[Methylamino-N-(1′1′-dimethylethyl)]-9,10-anthraquinone monophosphate], in the experiment on Oscillatoria perornata (rapid screening), the “LCIC (lowest-complete-inhibition concentration), Oscillatoria perornata” value is listed as 1,000 nM and the “LOEC … Oscillatoria perornata” value is reported as 1,000 nM. In addition, in experiment [1] (rapid screening), the “LCIC (lowest-complete-inhibition concentration), Selenastrum capricornutum” value is on record as 10,000 nM and the “LOEC … Selenastrum capricornutum” value is 1,000 nM.
As for `CCN(CC)CCCNc1cccc2c1C(=O)c1ccccc1C2=O.O=P(O)(O)O` [DNA2-91-1, 1-amino-N-(propyl-3′-N,N-diethylamino)-9,10-anthraquinone phosphate], in the experiment on Oscillatoria perornata (rapid screening), the “LCIC (lowest-complete-inhibition concentration), Oscillatoria perornata” value is 10,000 nM and the “LOEC … Oscillatoria perornata” value is 10,000 nM. For the same compound, in experiment [1] (rapid screening), the “LCIC (lowest-complete-inhibition concentration), Selenastrum capricornutum” value is given as 100,000 nM and the “LOEC … Selenastrum capricornutum” value is 100,000 nM.
As for `CCCCCNCc1ccc2c(c1)C(=O)c1ccccc1C2=O.O=P(O)(O)O` [DNA2-55-1, 2-[Methylamino-N-(pentyl)]-9,10-anthraquinone monophosphate], in the experiment on Oscillatoria perornata (rapid screening), the “LCIC (lowest-complete-inhibition concentration), Oscillatoria perornata” value is listed as 1,000 nM and the “LOEC … Oscillatoria perornata” value was 1,000 nM. In experiment [1] (rapid screening), the “LCIC (lowest-complete-inhibition concentration), Selenastrum capricornutum” value is 100,000 nM and the “LOEC … Selenastrum capricornutum” value is reported as 100,000 nM.
